Measurements: US4616003A, “N^6 -dihydroxypropyladenosines” (Warner-Lambert Company, priority 1985, dated 1986)
pIC50: −log10 of the molar value. Where two headings read alike, the source gives them in different places.

Columns and labels:
Swiss-Webster male mice [1] = assay: Mouse Activity and Screen Test (MAST): inhibition of spontaneous locomotor activity; format: in vivo; settings: 1 hour prior to testing
Protocol: Nine unfasted Swiss-Webster male mice weighing 20-30 g are equally divided into three groups for each drug dose to be tested. That is, data for each dose level was generated by three separate groups of three mice each. A minimum of three dose levels (10, 30, and 100 mg/kg) are tested for each drug. Treatments are administered intraperitoneally one hour prior to testing. All dosages are calculated as parent compound and given in volumes of 10 ml/kg. Compounds are dissolved or suspended in 0.2% Methocel. Control animals are injected with Methocel. Immediately following the screen test, the final phase of testing is initiated by placing each group of three mice in one actophotometer (Life Sciences, 22, 1067-1076, 1978). The actophotometer consists of a cylindrical chamber whose center is occupied by another cylinder which contains the illumination for six photocells located on the perimeter of the chamber. Six light-beam interruptions equal one count. Locomotor activity is recorded by computer at ten minute intervals for 60 minutes. Data: The data obtained from the screen test are expressed as percent of mice falling off the screen. Data derived from locomotor activity of drug treated mice are compared to the activity of vehicle treated animals and are expressed as percent inhibition of spontaneous locomotion. All percentages reported for inhibition of locomotion (LI) are based upon data accumulated for one hour. Both phases of testing are graded: A=60-100%; C=31-59%; and N=0-30%. An overall dose rating is obtained by the following criteria: […]

adenosine A1 receptor = target: T1, adenosine A1 receptor (Rattus norvegicus, UniProt P25099); assay: Adenosine A1 receptor binding (RBA-1), displacement of [3H]-CHA
T1 construct: Whole brain minus cerebellum and brainstem from male Long Evans rats (150-200 g) was homogenized; from tissue; host or cells: rat whole brain minus cerebellum and brainstem, male Long Evans
T1 sequence (P25099 1-326): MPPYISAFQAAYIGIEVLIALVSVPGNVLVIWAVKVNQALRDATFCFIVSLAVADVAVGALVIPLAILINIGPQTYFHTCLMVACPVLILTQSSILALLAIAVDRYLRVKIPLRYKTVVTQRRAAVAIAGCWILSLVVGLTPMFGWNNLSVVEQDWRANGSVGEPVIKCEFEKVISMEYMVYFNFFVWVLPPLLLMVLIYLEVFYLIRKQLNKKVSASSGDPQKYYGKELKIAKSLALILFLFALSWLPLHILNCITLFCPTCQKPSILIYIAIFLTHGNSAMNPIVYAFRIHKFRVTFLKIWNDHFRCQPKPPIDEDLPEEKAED
Protocol: Whole brain minus cerebellum and brainstem from male Long Evans rats (150-200 g) was homogenized in 30 volumes of ice-cold 0.05M Tris-HCl buffer pH 7.7 using a Brinkman Polytron PT-10, (setting number 6 for 20 seconds) and centrifuged for ten minutes at 20,000×g (Sorvall RC-2), 4° C. The supernatant was discarded, and the pellet was resuspended and centrifuged as before. The pellet was resuspended in 20 ml Tris-HCl buffer containing two International Units/ml of adenosine deaminase (Sigma type III from calf intestinal mucosa), incubated at 37° C. for 30 minutes, then subsequently at 0° C. for ten minutes. The homogenate was again centrifuged, and the final pellet was resuspended in ice-cold 0.05M Tris-HCl buffer pH 7.7 to a concentration of 20 mg/ml original wet tissue weight and used immediately.
Tissue homogenate (10 mg/ml) was incubated in 0.05M Tris-HCl buffer pH 7.7 containing 1.0 nM [^3 H]-N^6 -cyclohexyladenosine [^3 H]-CHA) with or without test agents in triplicate for one hour at 25° C. Incubation volume was 2 ml. Unbound [^3 H]-CHA was separated by rapid filtration under reduced pressure through Whatman glass fiber (GF/B) filters. The filters were rinsed three times with 5 ml of ice cold 0.05M Tris-HCl buffer pH 7.7. The radio-labeled ligand retained on the filter was measured by liquid scintillation spectrophotometry after shaking the filters for one hour or longer on a mechanical shaker in 10 ml of Beckman Ready-Solv HP scintillation cocktail.
Nonspecific binding was defined as the binding which occurred in the presence of 1 mM theophylline. […] The Scatchard plot was calculated by linear regression of the line obtained by plotting the amount of radioligand bound (pmoles/gram of tissue) versus [formula] Since the amount of radioligand bound was a small fraction of the total amount added, free radioligand was defined as the concentration (nM) of radioligand added to the incubation mixture. The Hill coefficient was calculated by linear regression of the line obtained by plotting the log of the bound radioligand vs the log of the [formula] The maximal number of binding sites (Bmax) was calculated from the Scatchard plot.

Swiss-Webster male mice [2] = assay: Mouse Activity and Screen Test (MAST): screen test failure; format: in vivo; settings: 1 hour prior to testing
Protocol: Nine unfasted Swiss-Webster male mice weighing 20-30 g are equally divided into three groups for each drug dose to be tested. That is, data for each dose level was generated by three separate groups of three mice each. A minimum of three dose levels (10, 30, and 100 mg/kg) are tested for each drug. Treatments are administered intraperitoneally one hour prior to testing. All dosages are calculated as parent compound and given in volumes of 10 ml/kg. Compounds are dissolved or suspended in 0.2% Methocel. Control animals are injected with Methocel. Testing: A two part testing procedure is started one hour postinjection. First, the screen test (ST) is performed (see Pharmac. Biochem. Behav. 6, 351-353, 1977). Briefly this test consists of placing mice on individual wire screens which are then rotated 180 degrees at the start of a 60 second observation period. The number of mice falling off the inverted screen is recorded. Data: The data obtained from the screen test are expressed as percent of mice falling off the screen. Data derived from locomotor activity of drug treated mice are compared to the activity of vehicle treated animals and are expressed as percent inhibition of spontaneous locomotion. All percentages reported for inhibition of locomotion (LI) are based upon data accumulated for one hour. Both phases of testing are graded: A=60-100%; C=31-59%; and N=0-30%. An overall dose rating is obtained by the following criteria: […]

[3] = 1.0 nM [3H]-CHA, rat whole brain minus cerebellum and brainstem, read-out: RBA-1 (IC50, adenosine A1 receptor affinity)

SMILES	pIC50 (adenosine A1 receptor; [3])	Inhibition of Mouse Locomotor Activity (Swiss-Webster male mice [1]; 0.1 mg/kg i.p.) [%]	Inhibition of Mouse Locomotor Activity (Swiss-Webster male mice [1]; 0.3 mg/kg i.p.) [%]	Inhibition of Mouse Locomotor Activity (Swiss-Webster male mice [1]; 1.0 mg/kg i.p.) [%]	Inhibition of Mouse Locomotor Activity (Swiss-Webster male mice [1]; 3.0 mg/kg i.p.) [%]	Inhibition of Mouse Locomotor Activity (Swiss-Webster male mice [1]; 10 mg/kg i.p.) [%]	Inhibition of Mouse Locomotor Activity (Swiss-Webster male mice [1]; 30 mg/kg i.p.) [%]	Inhibition of Mouse Locomotor Activity (Swiss-Webster male mice [1]; 100 mg/kg i.p.) [%]	Screen Test Failure (Swiss-Webster male mice [2]; 0.1 mg/kg i.p.) [%]	Screen Test Failure (Swiss-Webster male mice [2]; 0.3 mg/kg i.p.) [%]	Screen Test Failure (Swiss-Webster male mice [2]; 1.0 mg/kg i.p.) [%]	Screen Test Failure (Swiss-Webster male mice [2]; 3.0 mg/kg i.p.) [%]	Screen Test Failure (Swiss-Webster male mice [2]; 10 mg/kg i.p.) [%]	Screen Test Failure (Swiss-Webster male mice [2]; 30 mg/kg i.p.) [%]	Screen Test Failure (Swiss-Webster male mice [2]; 100 mg/kg i.p.) [%]	Inhibition of Mouse Locomotor Activity (Swiss-Webster male mice [1]; 0.03 mg/kg i.p.) [%]	pIC50 (adenosine A1 receptor)	Screen Test Failure (Swiss-Webster male mice [2]; 0.03 mg/kg i.p.) [%]
OCC(O)CNc1ncnc2c1ncn2[C@@H]1O[C@H](CO)[C@@H](O)[C@@H]1O (stereo partly drawn) [Example 1, (R,S)-N^6 [2,3-Dihydroxypropyl]adenosine]	8.05	46	96	97	99	100	100	99	8	100	100	100	100	100	100			
OC[C@@H](O)CNc1ncnc2c1ncn2[C@@H]1O[C@H](CO)[C@@H](O)[C@H]1O [Example 3]		-18	0	92	97	97	100		0	0	88	100	100	100		-19	7.34	0

Second part, led by results:

pIC50 (adenosine A1 receptor; [3])	SMILES	Inhibition of Mouse Locomotor Activity (Swiss-Webster male mice [1]; 0.1 mg/kg i.p.) [%]	Inhibition of Mouse Locomotor Activity (Swiss-Webster male mice [1]; 0.3 mg/kg i.p.) [%]	Inhibition of Mouse Locomotor Activity (Swiss-Webster male mice [1]; 1.0 mg/kg i.p.) [%]	Inhibition of Mouse Locomotor Activity (Swiss-Webster male mice [1]; 3.0 mg/kg i.p.) [%]	Inhibition of Mouse Locomotor Activity (Swiss-Webster male mice [1]; 10 mg/kg i.p.) [%]	Inhibition of Mouse Locomotor Activity (Swiss-Webster male mice [1]; 30 mg/kg i.p.) [%]	Inhibition of Mouse Locomotor Activity (Swiss-Webster male mice [1]; 100 mg/kg i.p.) [%]	Screen Test Failure (Swiss-Webster male mice [2]; 0.1 mg/kg i.p.) [%]	Screen Test Failure (Swiss-Webster male mice [2]; 0.3 mg/kg i.p.) [%]	Screen Test Failure (Swiss-Webster male mice [2]; 1.0 mg/kg i.p.) [%]	Screen Test Failure (Swiss-Webster male mice [2]; 3.0 mg/kg i.p.) [%]	Screen Test Failure (Swiss-Webster male mice [2]; 10 mg/kg i.p.) [%]	Screen Test Failure (Swiss-Webster male mice [2]; 30 mg/kg i.p.) [%]	Screen Test Failure (Swiss-Webster male mice [2]; 100 mg/kg i.p.) [%]	Inhibition of Mouse Locomotor Activity (Swiss-Webster male mice [1]; 0.03 mg/kg i.p.) [%]	pIC50 (adenosine A1 receptor)	Screen Test Failure (Swiss-Webster male mice [2]; 0.03 mg/kg i.p.) [%]
6.37	CC1(C)OCC(CNc2ncnc3c2ncn3[C@@H]2O[C@H](CO)[C@@H](O)[C@H]2O)O1 (stereo partly drawn) [Example 4, (R,S)-N^6-[2,3Dihydroxypropylisopropylidene]adenosine]		6	27	23	96	93	99		0	0	0	66	99	99			
6.36	CC1(C)OC[C@@H](CNc2ncnc3c2ncn3[C@@H]2O[C@H](CO)[C@@H](O)[C@H]2O)O1 [Example 5, (R)-N^6-[2,3-Dihydroxypropylisopropylidene]-adenosine]		40	39	69	48	98			0	11	11	77	100				
7.47	Nc1nc(NCC(O)CO)c2ncn([C@@H]3O[C@H](CO)[C@@H](O)[C@H]3O)c2n1 (stereo partly shown) [Example 8]		56	98	98	99	100	99		0	88	99	99	99	99			
